Bridge positions count the residues as written; N and C are the ends. Square brackets hold non-standard residues; d marks the D form. S5 = C=CCCC[C@](C)(N)C(=O)O; Nle = CCCC[C@H](N)C(=O)O
Legend:
Format in all cases: cell-based, human
[1] = system: CHOP, BIP and GRP94 genes; test: Tunicamycin-induced ER stress in THP-1 cells, expression of the CHOP, BIP and GRP94 genes by RT-qPCR; settings: THP-1, tunicamycin 0.1 μg/ml
Description: To assess the specificity of recognition of stapled peptides IRAK2, we induced ER stress in human monocytic cell line THP-1 by treatment with tunicamycin (0.1 μg/ml) for 8 h and 24 h.
THP-1 cells were cultured (300 000 cells/well) in RPMI 1640 supplemented with 10% fetal calf serum, 1% penicillin/streptomycin and L-glutamine. The cells were treated with 0.1 μg/ml tunicamycin for 30 min, 8 H or 24 H. The peptide was solubilized in 4% DMSO and used at concentrations ranging from 1 to 20 μM. Total cell RNAs were extracted with the miRNeasy kit (Qiagen), the expression levels of the genes were measured by RT-qPCR with Taqman assays (Lifetechnology) technology.
We have shown that IRAK2 is the main kinase expressed at 8 h, compared to IRAK1 (FIG. 3A). Measurement of the expression of the CHOP, BIP and GRP94 genes validated the activation of the ER stress at 8H as expected according to literature (FIG. 3B). In this study the peptides IRAK2 Li, IRAKM Li, IRAK2 S1, IRAK2 S2 (Li for linear peptide and S1 and S2 for stapled peptide) were tested. […] This inhibition was specific since, stapled peptide concentration of 20 μM, control stapled peptide (Mock S) has no effect (FIG. 3D).

TNFα = test: LPS-stimulated THP-1 monocytes, TNFα in culture supernatant by ELISA
Description: (§1) THP1 cells were cultured (300 000 cells/well) in RPMI 1640 supplemented with 10% fetal calf serum, 1% penicillin/streptomycin and L-glutamine. The cells were treated with 0.1 μg/ml LPS for 6 h for TNFα, and 24 h for IL-6 and IL-1β. The peptides were solubilized in 4% DMSO and used at 5 and 20 μM. The peptides were added at the same time as the LPS. The determination of the cytokines in the culture supernatants was carried out with the specific ELISA kits (eBioscience).
(§2) For all conditions tested, THP-1 monocytes were cultured (300 000 cells/well) in RPMI with 10% fetal calf serum; 1% penicillin/streptomycin and L-glutamine. THP-1 were treated with 0.1 μg/mL of LPS for 24 hours, stapled-peptides IRAK2-S1 et IRAKM-S1 were used at 1 to 20 μM and added at the same time for condition A, 6 hours before LPS for condition B and 6 hours after LPS for condition C. The quantification of cytokine in the culture supernatants was carried out with specific IL-6 and TNFα ELISA (eBioscience).
(§3) For all conditions tested, THP-1 monocytes were cultured (300 000 cells/well) in RPMI with 10% fetal calf serum; 1% penicillin/streptomycin and L-glutamine. THP-1 were treated with 0.1 μg/mL of LPS for 24 hours, stapled-peptides IRAK2-S1, IRAK2-JMV6649, IRAKM-S1 and IRAKM-JMV6650 were used at 10 to 20 μM and added at the same time for «Simultaneous» condition, 6 hours before LPS for «preventive» condition and 6 hours after LPS for «curative» condition. Using ELISA (eBioscience), IL-6 and TNFα quantification was carried out in monocyte culture supernatants.

IL-6 = test: LPS-stimulated THP-1 monocytes, IL-6 in culture supernatant by ELISA; settings: for effect on the expression level of IL-6: curative condition (peptide 6 hours after LPS), 1 to 20 μM; for IL-6 expression compared with the S1 peptide: curative condition; for efficacy on IL-6 compared with the IRAK2 peptide (IRAK2-S1): 10 to 20 μM
Description: as §1, §2, §3

IL-1β [2] = test: PMA-induced macrophage differentiation of THP-1 monocytes, IL-1β RNA (RT-qPCR) and secretion (ELISA); settings: THP-1, PMA 0.1 μg/ml 48 h, peptide 20 μM
Description: (§4) We stimulated the THP-1 monocytes with 0.1 μg/ml PMA for 48 h to induce differentiation into macrophages, and treated with 20 μM stapled peptide (IRAK2-S1 or Mock-S).
(§5) THP1 cells were cultured (300,000 cells/well) in RPMI 1640 supplemented with 10% fetal calf serum, 1% penicillin/streptomycin and L-glutamine. The cells were treated with 0.1 μg/ml of PMA for 48 h. The peptides were solubilized in 4% DMSO and used at 20 μM. The peptides are added together with the PMA. Total RNA of the cells were extracted by the miRNeasy kit (Qiagen), the level of expression of IL-1β was measured by RT-qPCR technology by Taqman assays (lifetechnology)
(§6) After extraction of the RNAs, we quantified by RT-qPCR the level of expression of the RNA of IL-1β (FIG. 4A). Using ELISA method, the cytokine secretion was measured in the supernatant of the treated THP-1 (FIG. 4B). The IRAK2-S1 peptide was able to block the expression and production of IL-1β at 20 μM. At this concentration, the peptide appears to have no effect on viability and morphology of the cells.

THP-1 cells = test: Viability and morphology of PMA-treated THP-1 cells with peptide; settings: THP-1, peptide 20 μM
Description: as §4, §5, §6

IL-1β [3] = test: LPS-stimulated THP-1 monocytes, IL-1β in culture supernatant by ELISA; settings: THP1, LPS 0.1 μg/ml 24 h, peptide 5 and 20 μM added at the same time as LPS
Description: as §1

[4] = simultaneous condition, peptide 20 μM
[5] = curative condition (peptide 6 hours after LPS), 10 μM
[6] = curative condition (peptide 6 hours after LPS), 20 μM
[7] = preventive condition (peptide 6 hours before LPS), 20 μM
[8] = simultaneous condition, LPS 0.1 μg/mL 24 h, peptide 10 and 20 μM
[9] = preventive condition (peptide 6 hours before LPS), 10 μM

Substance: Ac-ITF-S5-NLL-S5-YYGP-NH2 (Ac-ITF[S5]NLL[S5]YYGP-NH2; staple 4-8; SMILES CC[C@H](C)[C@H](NC(C)=O)C(=O)N[C@H](C(=O)N[C@@H](Cc1ccccc1)C(=O)N[C@@]1(C)CCCC=CCCC[C@@](C)(C(=O)N[C@@H](Cc2ccc(O)cc2)C(=O)N[C@@H](Cc2ccc(O)cc2)C(=O)NCC(=O)N2CCC[C@H]2C(N)=O)NC(=O)[C@H](CC(C)C)NC(=O)[C@H](CC(C)C)NC(=O)[C@H](CC(N)=O)NC1=O)[C@@H](C)O) [Mock-S, reference compound]
- expression of ER stress genes (specificity control) ([1]; peptide 20 μM): no effect
- inhibition of TNFα expression (TNFα; [4]): 15 to 20%
- inhibition of IL-6 expression (IL-6; [4]): 15 to 20%

Substance: Ac-KSG-S5-REL-S5-WSWAQK-NH2 (Ac-KSG[S5]REL[S5]WSWAQK-NH2; staple 4-8; SMILES CC(=O)N[C@@H](CCCCN)C(=O)N[C@@H](CO)C(=O)NCC(=O)N[C@@]1(C)CCCC=CCCC[C@@](C)(C(=O)N[C@@H](Cc2c[nH]c3ccccc23)C(=O)N[C@@H](CO)C(=O)N[C@@H](Cc2c[nH]c3ccccc23)C(=O)N[C@@H](C)C(=O)N[C@@H](CCC(N)=O)C(=O)N[C@@H](CCCCN)C(N)=O)NC(=O)[C@H](CC(C)C)NC(=O)[C@H](CCC(=O)O)NC(=O)[C@H](CCCNC(=N)N)NC1=O) [IRAKM-S1]
- inhibition of TNFα secretion (TNFα; [5]): No inhibition
- inhibition of TNFα secretion (TNFα; [6]): 15 to 20%
- inhibition of TNFα secretion (TNFα; [7]): 95%
- inhibition of TNFα secretion (TNFα; [8]): significantly inhibit
- inhibition of TNFα expression (TNFα; [4]): up to 95%
- effect on the expression level of IL-6 (IL-6): no effect
- inhibition of IL-6 secretion (IL-6; [7]): 90%
- inhibition of IL-6 secretion (IL-6; [8]): significantly inhibit
- inhibition of IL-6 expression (IL-6; [4]): ≤ 90%

Substance: Ac-KSG-S5-REL-S5-WSWAQKNKTI-NH2 (Ac-KSG[S5]REL[S5]WSWAQKNKTI-NH2; staple 4-8; SMILES CC[C@H](C)[C@H](NC(=O)[C@@H](NC(=O)[C@H](CCCCN)NC(=O)[C@H](CC(N)=O)NC(=O)[C@H](CCCCN)NC(=O)[C@H](CCC(N)=O)NC(=O)[C@H](C)NC(=O)[C@H](Cc1c[nH]c2ccccc12)NC(=O)[C@H](CO)NC(=O)[C@H](Cc1c[nH]c2ccccc12)NC(=O)[C@]1(C)CCCC=CCCC[C@](C)(NC(=O)CNC(=O)[C@H](CO)NC(=O)[C@H](CCCCN)NC(C)=O)C(=O)N[C@@H](CCCNC(=N)N)C(=O)N[C@@H](CCC(=O)O)C(=O)N[C@@H](CC(C)C)C(=O)N1)[C@@H](C)O)C(N)=O) [IRAKM-JMV6649]
- increase of inhibition of TNFα expression compared with IRAKM-S1 (TNFα; curative condition, 20 μM): not significant
- greater inhibition of TNFα expression compared with IRAKM-S1 (TNFα; preventive condition, 10 μM): 20%
- additive inhibitory effect on TNFα expression compared with IRAKM-S1 (TNFα; simultaneous condition, 20 μM): no additive inhibitory effect
- IL-6 expression compared with the S1 peptide (IL-6; 20 μM): not significant
- additional inhibition of IL-6 expression compared with IRAKM-S1 (IL-6; preventive condition, 10 μM): 60%
- additional inhibition of IL-6 expression compared with IRAKM-S1 (IL-6; preventive condition, 20 μM): 80%
- decrease of IL-6 secretion compared with IRAKM-S1 (IL-6; simultaneous condition, 20 μM): more than 70%

Substance: Ac-S5-REL-S5-WWWGBRQA-NH2 (Ac-[S5]REL[S5]WWWG[Nle]RQA-NH2; staple 1-5; SMILES CCCC[C@H](NC(=O)CNC(=O)[C@H](Cc1c[nH]c2ccccc12)NC(=O)[C@H](Cc1c[nH]c2ccccc12)NC(=O)[C@H](Cc1c[nH]c2ccccc12)NC(=O)[C@]1(C)CCCC=CCCC[C@](C)(NC(C)=O)C(=O)N[C@@H](CCCNC(=N)N)C(=O)N[C@@H](CCC(=O)O)C(=O)N[C@@H](CC(C)C)C(=O)N1)C(=O)N[C@@H](CCCNC(=N)N)C(=O)N[C@@H](CCC(N)=O)C(=O)N[C@@H](C)C(N)=O) [IRAK2-S1]
- expression of CHOP, GRP94 and BIP (ER stress) ([1]; simultaneous treatment, peptide 1 to 20 μM, RT-qPCR): blocked in a dose-dependent manner
- production of IL-1β in supernatant (IL-1β [2]; ELISA): able to block
- expression of IL-1β RNA (IL-1β [2]; RT-qPCR): able to block
- effect on viability and morphology of the cells (THP-1 cells): no effect
- TNFα secreted after LPS stimulation (TNFα; THP1, LPS 0.1 μg/ml 6 h, peptide 5 and 20 μM added at the same time as LPS): reduced the expression of the 3 cytokines in a dose-dependent manner
- inhibition of TNFα secretion (TNFα; [5]): ≤ 30%
- inhibition of TNFα secretion (TNFα; [6]): ≤ 70%
- inhibition of TNFα expression (TNFα; [9]): No inhibition
- inhibition of TNFα secretion (TNFα; [7]): 15 to 20%
- inhibition of TNFα secretion (TNFα; [8]): significantly inhibit
- IL-6 secreted after LPS stimulation (IL-6; THP1, LPS 0.1 μg/ml 24 h, peptide 5 and 20 μM added at the same time as LPS): reduced the expression of the 3 cytokines in a dose-dependent manner
- effect on the expression level of IL-6 (IL-6): no effect
- inhibition of IL-6 expression (IL-6; [9]): No inhibition
- inhibition of IL-6 secretion (IL-6; [7]): 15 to 20%
- inhibition of IL-6 secretion (IL-6; [8]): significantly inhibit
- IL-1β secreted after LPS stimulation (IL-1β [3]): reduced the expression of the 3 cytokines in a dose-dependent manner

Substance: Ac-VSI-S5-REL-S5-WWWGBRQATV-NH2 (Ac-VSI[S5]REL[S5]WWWG[Nle]RQATV-NH2; staple 4-8; SMILES CCCC[C@H](NC(=O)CNC(=O)[C@H](Cc1c[nH]c2ccccc12)NC(=O)[C@H](Cc1c[nH]c2ccccc12)NC(=O)[C@H](Cc1c[nH]c2ccccc12)NC(=O)[C@]1(C)CCCC=CCCC[C@](C)(NC(=O)[C@@H](NC(=O)[C@H](CO)NC(=O)[C@@H](NC(C)=O)C(C)C)[C@@H](C)CC)C(=O)N[C@@H](CCCNC(=N)N)C(=O)N[C@@H](CCC(=O)O)C(=O)N[C@@H](CC(C)C)C(=O)N1)C(=O)N[C@@H](CCCNC(=N)N)C(=O)N[C@@H](CCC(N)=O)C(=O)N[C@@H](C)C(=O)N[C@H](C(=O)N[C@H](C(N)=O)C(C)C)[C@@H](C)O) [IRAK2-JMV6650]
- additional inhibition of TNFα production compared with the S1 peptide (TNFα; curative condition, 10 to 20 μM): not significant
- efficacy on TNFα compared with the IRAK2 peptide (IRAK2-S1) (TNFα; preventive condition, 10 to 20 μM, data not shown): No more efficacy
- efficacy on TNFα compared with the IRAK2 peptide (IRAK2-S1) (TNFα; simultaneous condition, 10 to 20 μM): No more efficacy
- IL-6 expression compared with the S1 peptide (IL-6; 20 μM): acts as IRAK2-S1
- efficacy on IL-6 compared with the IRAK2 peptide (IRAK2-S1) (IL-6; preventive condition, data not shown): No more efficacy
- efficacy on IL-6 compared with the IRAK2 peptide (IRAK2-S1) (IL-6; simultaneous condition): No more efficacy

Source: patent US11339191B2, “Stapled peptides and uses thereof” (Universite de Montpellier, priority 2016, dated 2022)
